Laboratory results published in PubChem BioAssay (NCI).
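Step 1: Grow cells in 96-well plates. Step 2: Expose to compound for 48 hours at 5 concentrations. Step 3: Interpolate endpoints linearly; if unreached, use highest concentration. TGI: total growth inhibition.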

Assays:
Experiment in all cases: NCI-60 cell line screen, 48 h
[1] = test system: UACC-257 melanoma
[2] = test system: HOP-62 NSCLC
[3] = test system: HS 578T breast
[4] = test system: DU-145 prostate
[5] = test system: HL-60(TB) leukemia
[6] = test system: OVCAR-3 ovarian
[7] = test system: EKVX NSCLC
[8] = test system: MOLT-4 leukemia
[9] = test system: TK-10 renal
[10] = test system: MDA-N
[11] = test system: OVCAR-4 ovarian
[12] = test system: 786-0 renal
[13] = test system: SK-MEL-5 melanoma
[14] = test system: HT29 colon
[15] = test system: NCI-H23 lung
[16] = test system: OVCAR-5 ovarian
[17] = test system: COLO 205 colon
[18] = test system: A498 renal
[19] = test system: NCI/ADR-RES ovarian
[20] = test system: UACC-62 melanoma
[21] = test system: MCF7 breast
[22] = test system: M14 melanoma
[23] = test system: OVCAR-8 ovarian
[24] = test system: HCT-15 colon
[25] = test system: K-562 leukemia
[26] = test system: SF-295 CNS
[27] = test system: SF-539 CNS
[28] = test system: ACHN renal
[29] = test system: A549 NSCLC
[30] = test system: IGROV1 ovarian
[31] = test system: SW-620 colon
[32] = test system: RPMI-8226 leukemia
[33] = test system: HOP-92 NSCLC
[34] = test system: SK-MEL-2 melanoma
[35] = test system: KM12 colon
[36] = test system: RXF 393 renal
[37] = test system: HCT-116 colon
[38] = test system: CAKI-1 renal
[39] = test system: HCC-2998 colon
[40] = test system: SF-268 CNS
[41] = test system: CCRF-CEM leukemia
[42] = test system: U251 CNS
[43] = test system: SK-MEL-28 melanoma
[44] = test system: BT-549 breast
[45] = test system: NCI-H460 lung
[46] = test system: SN12C renal
[47] = test system: SNB-19 CNS
[48] = test system: MALME-3M melanoma
[49] = test system: MDA-MB-435
[50] = test system: LOX IMVI melanoma
[51] = test system: NCI-H522 lung
[52] = test system: T-47D breast
[53] = test system: MDA-MB-231 breast
[54] = test system: SK-OV-3 ovarian
[55] = test system: PC-3 prostate
[56] = test system: SR leukemia
[57] = test system: UO-31 renal
[58] = test system: NCI-H226 lung
[59] = test system: SNB-75 CNS

`COc1cc([C@@H]2c3cc4c(cc3[C@@H](c3c(O)cc(O)c5c3O[C@H](c3ccc(O)c(O)c3)[C@@H](O)C5)[C@H]3COC(=O)[C@H]23)OCO4)cc(OC)c1O` was tested, and the TGI [1] was greater than 100 µM, the TGI [2] was greater than 100 µM and the TGI [3] was greater than 100 µM. For the same compound, the TGI [4] was greater than 100 µM, the TGI [5] was greater than 100 µM and the TGI [6] was greater than 100 µM. The TGI [7] was greater than 100 µM, the TGI [8] was greater than 100 µM and the TGI [9] was greater than 100 µM. The TGI [10] was greater than 100 µM, the TGI [11] was greater than 100 µM and the TGI [12] was greater than 100 µM. For the same compound, the TGI [13] was greater than 100 µM, the TGI [14] was greater than 100 µM and the TGI [15] was greater than 100 µM. The TGI [16] was greater than 100 µM, the TGI [17] was greater than 100 µM and the TGI [18] was greater than 100 µM. It also gave a TGI [19] greater than 100 µM, a TGI [20] greater than 100 µM and a TGI [21] greater than 100 µM. For the same compound, the TGI [22] was greater than 100 µM, the TGI [23] was greater than 100 µM and the TGI [24] was greater than 100 µM. It also gave a TGI [25] greater than 100 µM, a TGI [26] greater than 100 µM and a TGI [27] greater than 100 µM. The TGI [28] was greater than 100 µM, the TGI [29] was greater than 100 µM and the TGI [30] was greater than 100 µM. The TGI [31] was greater than 100 µM, the TGI [32] was greater than 100 µM and the TGI [33] was greater than 100 µM. For the same compound, the TGI [34] was greater than 100 µM, the TGI [35] was greater than 100 µM and the TGI [36] was greater than 100 µM. For the same compound, the TGI [37] was greater than 100 µM, the TGI [38] was greater than 100 µM and the TGI [39] was greater than 100 µM. For the same compound, the TGI [40] was greater than 100 µM, the TGI [41] was greater than 100 µM and the TGI [42] was greater than 100 µM. It also gave a TGI [43] greater than 100 µM, a TGI [44] greater than 100 µM and a TGI [45] greater than 100 µM. It also gave a TGI [46] greater than 100 µM, a TGI [47] greater than 100 µM and a TGI [48] greater than 100 µM. For the same compound, the TGI [49] was greater than 100 µM, the TGI [50] was greater than 100 µM and the TGI [51] was greater than 100 µM. For the same compound, the TGI [52] was greater than 100 µM, the TGI [53] was greater than 100 µM and the TGI [54] was greater than 100 µM. It also gave a TGI [55] greater than 100 µM.

Work on `COc1cc(OCc2ccc3nc(OC)c(OC)nc3c2)cc(OC)c1OC` yielded a TGI [1] greater than 10 µM, a TGI [2] greater than 10 µM and a TGI [3] greater than 10 µM. It also gave a TGI [4] greater than 10 µM, a TGI [5] greater than 10 µM and a TGI [6] greater than 10 µM. For the same compound, the TGI [7] was greater than 10 µM, the TGI [8] was greater than 10 µM and the TGI [56] was greater than 10 µM. It also gave a TGI [9] greater than 10 µM, a TGI [10] greater than 10 µM and a TGI [11] greater than 10 µM. The TGI [12] was greater than 10 µM, the TGI [13] was greater than 10 µM and the TGI [14] was greater than 10 µM. It also gave a TGI [15] greater than 10 µM, a TGI [16] greater than 10 µM and a TGI [17] greater than 10 µM. For the same compound, the TGI [18] was greater than 10 µM, the TGI [19] was greater than 10 µM and the TGI [20] was greater than 10 µM. It also gave a TGI [21] greater than 10 µM, a TGI [22] greater than 10 µM and a TGI [23] greater than 10 µM. It also gave a TGI [24] greater than 10 µM, a TGI [25] greater than 10 µM and a TGI [26] greater than 10 µM. For the same compound, the TGI [27] was greater than 10 µM, the TGI [28] was greater than 10 µM and the TGI [29] was greater than 10 µM. It also gave a TGI [30] greater than 10 µM, a TGI [31] greater than 10 µM and a TGI [32] greater than 10 µM. For the same compound, the TGI [33] was greater than 10 µM, the TGI [34] was greater than 2.29 µM and the TGI [35] was greater than 10 µM. For the same compound, the TGI [36] was greater than 10 µM, the TGI [37] was greater than 10 µM and the TGI [38] was greater than 10 µM. The TGI [39] was greater than 10 µM, the TGI [40] was greater than 10 µM and the TGI [57] was greater than 10 µM. It also gave a TGI [41] greater than 10 µM, a TGI [42] greater than 10 µM and a TGI [43] greater than 10 µM. The TGI [44] was greater than 6.32 µM, the TGI [45] was greater than 10 µM and the TGI [46] was greater than 10 µM. For the same compound, the TGI [47] was greater than 10 µM, the TGI [48] was greater than 10 µM and the TGI [49] was greater than 10 µM. For the same compound, the TGI [50] was greater than 10 µM, the TGI [51] was greater than 10 µM and the TGI [52] was greater than 10 µM. The TGI [58] was greater than 10 µM, the TGI [53] was greater than 10 µM and the TGI [59] was greater than 10 µM. The TGI [54] was greater than 10 µM and the TGI [55] was greater than 4.95 µM.

Compound `COc1ccc(/C=N/N2C(=O)c3c(N)c(C#N)c(-c4ccccc4)c(-c4ccccc4)c3C2=O)cc1` has a TGI [1] greater than 100 µM, a TGI [3] greater than 100 µM and a TGI [4] greater than 100 µM. It also gave a TGI [5] greater than 100 µM, a TGI [6] greater than 100 µM and a TGI [7] greater than 100 µM. It also gave a TGI [8] greater than 100 µM, a TGI [56] greater than 100 µM and a TGI [9] greater than 100 µM. For the same compound, the TGI [10] was greater than 100 µM, the TGI [11] was greater than 100 µM and the TGI [12] was greater than 100 µM. The TGI [13] was greater than 100 µM, the TGI [16] was greater than 100 µM and the TGI [17] was greater than 100 µM. It also gave a TGI [18] greater than 100 µM, a TGI [19] greater than 100 µM and a TGI [20] greater than 100 µM. The TGI [21] was greater than 100 µM, the TGI [22] was greater than 100 µM and the TGI [23] was greater than 100 µM. It also gave a TGI [24] greater than 100 µM, a TGI [25] greater than 100 µM and a TGI [26] greater than 100 µM. For the same compound, the TGI [27] was greater than 100 µM, the TGI [28] was greater than 100 µM and the TGI [29] was greater than 100 µM. The TGI [30] was greater than 100 µM, the TGI [31] was greater than 100 µM and the TGI [32] was greater than 100 µM. The TGI [33] was greater than 100 µM, the TGI [34] was greater than 100 µM and the TGI [35] was greater than 100 µM. It also gave a TGI [36] greater than 100 µM, a TGI [37] greater than 100 µM and a TGI [38] greater than 100 µM. For the same compound, the TGI [39] was greater than 100 µM, the TGI [40] was greater than 100 µM and the TGI [57] was greater than 100 µM. The TGI [41] was greater than 100 µM, the TGI [42] was greater than 100 µM and the TGI [43] was greater than 100 µM. The TGI [44] was greater than 100 µM, the TGI [45] was greater than 100 µM and the TGI [46] was greater than 100 µM. The TGI [47] was greater than 100 µM, the TGI [48] was greater than 100 µM and the TGI [49] was greater than 100 µM. It also gave a TGI [50] greater than 100 µM, a TGI [51] greater than 100 µM and a TGI [52] greater than 100 µM. It also gave a TGI [58] greater than 100 µM, a TGI [53] greater than 100 µM and a TGI [59] greater than 100 µM. The TGI [55] was greater than 100 µM.

`N#Cc1c(C#N)c(-c2ccccc2)n(-c2ccccc2)c1N` showed a TGI [1] greater than 100 µM, a TGI [2] greater than 100 µM and a TGI [3] greater than 100 µM. For the same compound, the TGI [4] was greater than 100 µM, the TGI [5] was greater than 100 µM and the TGI [6] was greater than 100 µM. The TGI [7] was greater than 100 µM, the TGI [8] was greater than 100 µM and the TGI [56] was greater than 100 µM. The TGI [9] was greater than 100 µM, the TGI [10] was greater than 100 µM and the TGI [11] was greater than 100 µM. It also gave a TGI [12] greater than 100 µM, a TGI [13] greater than 100 µM and a TGI [14] greater than 100 µM. It also gave a TGI [15] greater than 100 µM, a TGI [16] greater than 100 µM and a TGI [17] greater than 100 µM. It also gave a TGI [18] greater than 100 µM, a TGI [19] greater than 100 µM and a TGI [20] greater than 100 µM. It also gave a TGI [21] greater than 100 µM, a TGI [22] greater than 100 µM and a TGI [23] greater than 100 µM. The TGI [24] was greater than 100 µM, the TGI [25] was greater than 100 µM and the TGI [26] was greater than 100 µM. It also gave a TGI [27] greater than 100 µM, a TGI [28] greater than 100 µM and a TGI [29] greater than 100 µM. It also gave a TGI [30] greater than 100 µM, a TGI [31] greater than 100 µM and a TGI [32] greater than 100 µM. It also gave a TGI [34] greater than 100 µM, a TGI [35] greater than 100 µM and a TGI [36] greater than 100 µM. For the same compound, the TGI [37] was greater than 100 µM, the TGI [38] was greater than 100 µM and the TGI [40] was greater than 100 µM. For the same compound, the TGI [57] was greater than 100 µM, the TGI [41] was greater than 100 µM and the TGI [42] was greater than 100 µM. It also gave a TGI [44] greater than 100 µM, a TGI [46] greater than 100 µM and a TGI [47] greater than 100 µM. For the same compound, the TGI [48] was greater than 100 µM, the TGI [49] was greater than 100 µM and the TGI [50] was greater than 100 µM. The TGI [51] was greater than 100 µM, the TGI [52] was 56.1 µM and the TGI [58] was greater than 100 µM. The TGI [53] was greater than 100 µM, the TGI [59] was 86.4 µM and the TGI [54] was greater than 100 µM. For the same compound, the TGI [55] was greater than 100 µM.
